Experimental data reported in patent US10738028B2, “Spiro three-membered ring, spiro five-membered ring peptide deformylase inhibitor and use thereof in antibacteria and anti-tumor” (priority 2016, dated 2020).
≈ marks a conversion by molar mass, not a printed value.

What was measured:
Format in all cases: cell-based
[1] = system: Enterococcus faecalis (EFA); experiment: MIC, two-fold agar dilution (CLSI), clinical isolates
Source text: (§1) 1. The invention adopts the two-fold agar dilution method recommended by the operating procedure of antimicrobial susceptibility testing set by American Clinical and Laboratory Standards Institute (CLSI) to determine the Minimum Inhibitory Concentration (MIC) of the test samples against the tested strains.

[2] = system: Enterococcus faecium (EFM); experiment: as above
Source text: as §1

[3] = system: Escherichia coli (including ESBLs, non-ESBLs); experiment: as above
Source text: as §1

[4] = system: Moraxella catarrhalis (BCA); experiment: as above; settings: for Anti-bacterial activity (MIC), strain BCA 14-10: clinical isolate BCA 14-10
Source text: as §1

[5] = system: Streptococcus pneoumoniae (SPN); experiment: as above
Source text: as §1

[6] = system: methicillin-resistant Staphylococcus aureus (MRSA); experiment: as above
Source text: as §1

[7] = system: methicillin-resistant Staphylococcus epidermidis (MRSE); experiment: as above
Source text: as §1

[8] = system: methicillin-sensitive Staphylococcus aureus (MSSA); experiment: as above
Source text: as §1

[9] = system: methicillin-sensitive Staphylococcus epidermidis (MSSE); experiment: as above
Source text: as §1

[10] = system: HCT-116 colorectal cancer cell line; experiment: CCK-8 proliferation inhibition; settings: Homo sapiens, HCT-116, 72 h, concentration of 30 μM; 72 hours; CCK-8; read-out: HCT116 inhibition rate/%
Outline: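 HCT-116 cells, seeded at 2000 cells/well in McCoy's 5A with 10% newborn bovine serum, were cultured overnight at 37° C., 5% CO2, then exposed to compound dilutions in medium for 72 hours. Viability was read with 1:10 diluted CCK-8; controls received 1‰ DMSO.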

O=CN(O)C[C@@H](CC1CCCC1)C(=O)N1CC2(CC2)C[C@H]1C(=O)Nc1ccncn1 [Example 27, (S)-5-((R)-3-cyclopentyl-2-((N-hydroxyformamido)methyl)propionyl)-N-(pyrimidin-4-yl)-5-spiro[2.4]heptane-6-carboxamide]
MIC (anti-bacterial activity) ([1]; strain EFA 15-1): 2 µg/mL (≈ 4.81 µM)
MIC (anti-bacterial activity) ([1]; strain EFA 15-2): 2 µg/mL (≈ 4.81 µM)
MIC (anti-bacterial activity) ([1]; strain EFA 15-3): 2 µg/mL (≈ 4.81 µM)
MIC (anti-bacterial activity) ([1]; strain EFA 15-4): 2 µg/mL (≈ 4.81 µM)
MIC (anti-bacterial activity) ([1]; strain EFA 15-5): 2 µg/mL (≈ 4.81 µM)
MIC (anti-bacterial activity) ([1]; strain EFA 15-6): 2 µg/mL (≈ 4.81 µM)
MIC (anti-bacterial activity) ([1]; strain EFA 15-9): 2 µg/mL (≈ 4.81 µM)
MIC (anti-bacterial activity) ([2]; strain EFM 15-1): 0.25 µg/mL (≈ 0.602 µM)
MIC (anti-bacterial activity) ([2]; strain EFM 15-2): 1 µg/mL (≈ 2.41 µM)
MIC (anti-bacterial activity) ([2]; strain EFM 15-3): 0.25 µg/mL (≈ 0.602 µM)
MIC (anti-bacterial activity) ([2]; strain EFM 15-4): 0.5 µg/mL (≈ 1.2 µM)
MIC (anti-bacterial activity) ([2]; strain EFM 15-5): 0.25 µg/mL (≈ 0.602 µM)
MIC (anti-bacterial activity) ([2]; strain EFM 15-6): 0.5 µg/mL (≈ 1.2 µM)
MIC (anti-bacterial activity) ([3]; strain ECO+ 15-1): 16 µg/mL (≈ 38.5 µM)
MIC (anti-bacterial activity) ([3]; strain ECO+ 15-2): 32 µg/mL (≈ 77 µM)
MIC (anti-bacterial activity) ([3]; strain ECO+ 15-3): 32 µg/mL (≈ 77 µM)
MIC (anti-bacterial activity) ([3]; strain ECO+ 15-4): 32 µg/mL (≈ 77 µM)
MIC (anti-bacterial activity) ([3]; strain ECO− 15-1): 32 µg/mL (≈ 77 µM)
MIC (anti-bacterial activity) ([3]; strain ECO− 15-2): 32 µg/mL (≈ 77 µM)
MIC (anti-bacterial activity) ([3]; strain ECO− 15-3): 32 µg/mL (≈ 77 µM)
MIC (anti-bacterial activity) ([3]; strain ECO− 15-4): 32 µg/mL (≈ 77 µM)
Anti-bacterial activity (MIC), strain BCA 14-10 [4]: 0.5 µg/mL
MIC (anti-bacterial activity) ([4]; strain BCA 14-1): 2 µg/mL (≈ 4.81 µM)
MIC (anti-bacterial activity) ([4]; strain BCA 14-4): 2 µg/mL (≈ 4.81 µM)
MIC (anti-bacterial activity) ([4]; strain BCA 14-5): 0.25 µg/mL (≈ 0.602 µM)
MIC (anti-bacterial activity) ([4]; strain BCA 14-6): 0.125 µg/mL (≈ 0.301 µM)
MIC (anti-bacterial activity) ([4]; strain BCA 14-7): 0.25 µg/mL (≈ 0.602 µM)
MIC (anti-bacterial activity) ([4]; strain BCA 14-8): 0.5 µg/mL (≈ 1.2 µM)
MIC (anti-bacterial activity) ([5]; strain SPN 16-2): 0.25 µg/mL (≈ 0.602 µM)
MIC (anti-bacterial activity) ([5]; strain SPN 16-4): 2 µg/mL (≈ 4.81 µM)
MIC (anti-bacterial activity) ([6]; strain MRSA 15-1): 0.125 µg/mL (≈ 0.301 µM)
MIC (anti-bacterial activity) ([6]; strain MRSA 15-2): 0.125 µg/mL (≈ 0.301 µM)
MIC (anti-bacterial activity) ([6]; strain MRSA 15-3): 0.125 µg/mL (≈ 0.301 µM)
MIC (anti-bacterial activity) ([6]; strain MRSA 15-4): 0.125 µg/mL (≈ 0.301 µM)
MIC (anti-bacterial activity) ([7]; strain MRSE 15-1): 0.06 µg/mL (≈ 0.144 µM)
MIC (anti-bacterial activity) ([7]; strain MRSE 15-2): 0.125 µg/mL (≈ 0.301 µM)
MIC (anti-bacterial activity) ([7]; strain MRSE 15-3): 0.125 µg/mL (≈ 0.301 µM)
MIC (anti-bacterial activity) ([7]; strain MRSE 15-7): 0.125 µg/mL (≈ 0.301 µM)
MIC (anti-bacterial activity) ([8]; strain MSSA 15-3): 0.125 µg/mL (≈ 0.301 µM)
MIC (anti-bacterial activity) ([8]; strain MSSA 15-4): 0.125 µg/mL (≈ 0.301 µM)
MIC (anti-bacterial activity) ([8]; strain MSSA 15-5): 0.125 µg/mL (≈ 0.301 µM)
MIC (anti-bacterial activity) ([8]; strain MSSA 15-6): 0.125 µg/mL (≈ 0.301 µM)
MIC (anti-bacterial activity) ([9]; strain MSSE 15-3): 0.125 µg/mL (≈ 0.301 µM)
MIC (anti-bacterial activity) ([9]; strain MSSE 15-4): 0.125 µg/mL (≈ 0.301 µM)
MIC (anti-bacterial activity) ([9]; strain MSSE 15-5): 0.125 µg/mL (≈ 0.301 µM)
MIC (anti-bacterial activity) ([9]; strain MSSE 15-6): 0.125 µg/mL (≈ 0.301 µM)
inhibition at 30 µM [10]: 17%

O=CN(O)C[C@@H](CC1CCCC1)C(=O)N1CC2(CC2)C[C@H]1C(=O)Nc1ccc(F)cn1 [Example 28]
MIC (anti-bacterial activity) ([1]; strain EFA 15-1): 2 µg/mL (≈ 4.62 µM)
MIC (anti-bacterial activity) ([1]; strain EFA 15-2): 2 µg/mL (≈ 4.62 µM)
MIC (anti-bacterial activity) ([1]; strain EFA 15-3): 2 µg/mL (≈ 4.62 µM)
MIC (anti-bacterial activity) ([1]; strain EFA 15-4): 2 µg/mL (≈ 4.62 µM)
MIC (anti-bacterial activity) ([1]; strain EFA 15-5): 2 µg/mL (≈ 4.62 µM)
MIC (anti-bacterial activity) ([1]; strain EFA 15-6): 2 µg/mL (≈ 4.62 µM)
MIC (anti-bacterial activity) ([1]; strain EFA 15-9): 2 µg/mL (≈ 4.62 µM)
MIC (anti-bacterial activity) ([2]; strain EFM 15-1): 0.5 µg/mL (≈ 1.16 µM)
MIC (anti-bacterial activity) ([2]; strain EFM 15-2): 1 µg/mL (≈ 2.31 µM)
MIC (anti-bacterial activity) ([2]; strain EFM 15-3): 0.125 µg/mL (≈ 0.289 µM)
MIC (anti-bacterial activity) ([2]; strain EFM 15-4): 1 µg/mL (≈ 2.31 µM)
MIC (anti-bacterial activity) ([2]; strain EFM 15-5): 1 µg/mL (≈ 2.31 µM)
MIC (anti-bacterial activity) ([2]; strain EFM 15-6): 1 µg/mL (≈ 2.31 µM)
MIC (anti-bacterial activity) ([3]; strain ECO+ 15-1): 16 µg/mL (≈ 37 µM)
MIC (anti-bacterial activity) ([3]; strain ECO+ 15-2): 64 µg/mL (≈ 148 µM)
MIC (anti-bacterial activity) ([3]; strain ECO+ 15-3): 64 µg/mL (≈ 148 µM)
MIC (anti-bacterial activity) ([3]; strain ECO+ 15-4): 32 µg/mL (≈ 74 µM)
MIC (anti-bacterial activity) ([3]; strain ECO− 15-1): 32 µg/mL (≈ 74 µM)
MIC (anti-bacterial activity) ([3]; strain ECO− 15-2): 32 µg/mL (≈ 74 µM)
MIC (anti-bacterial activity) ([3]; strain ECO− 15-3): 64 µg/mL (≈ 148 µM)
MIC (anti-bacterial activity) ([3]; strain ECO− 15-4): 64 µg/mL (≈ 148 µM)
Anti-bacterial activity (MIC), strain BCA 14-10 [4]: 0.25 µg/mL
MIC (anti-bacterial activity) ([4]; strain BCA 14-1): 1 µg/mL (≈ 2.31 µM)
MIC (anti-bacterial activity) ([4]; strain BCA 14-4): 1 µg/mL (≈ 2.31 µM)
MIC (anti-bacterial activity) ([4]; strain BCA 14-5): 0.25 µg/mL (≈ 0.578 µM)
MIC (anti-bacterial activity) ([4]; strain BCA 14-6): 1 µg/mL (≈ 2.31 µM)
MIC (anti-bacterial activity) ([4]; strain BCA 14-7): 0.125 µg/mL (≈ 0.289 µM)
MIC (anti-bacterial activity) ([4]; strain BCA 14-8): 0.5 µg/mL (≈ 1.16 µM)
MIC (anti-bacterial activity) ([5]; strain SPN 16-4): 1 µg/mL (≈ 2.31 µM)
MIC (anti-bacterial activity) ([6]; strain MRSA 15-1): 0.125 µg/mL (≈ 0.289 µM)
MIC (anti-bacterial activity) ([6]; strain MRSA 15-2): 0.125 µg/mL (≈ 0.289 µM)
MIC (anti-bacterial activity) ([6]; strain MRSA 15-3): 0.125 µg/mL (≈ 0.289 µM)
MIC (anti-bacterial activity) ([6]; strain MRSA 15-4): 0.125 µg/mL (≈ 0.289 µM)
MIC (anti-bacterial activity) ([7]; strain MRSE 15-1): 0.125 µg/mL (≈ 0.289 µM)
MIC (anti-bacterial activity) ([7]; strain MRSE 15-2): 0.5 µg/mL (≈ 1.16 µM)
MIC (anti-bacterial activity) ([7]; strain MRSE 15-3): 0.5 µg/mL (≈ 1.16 µM)
MIC (anti-bacterial activity) ([7]; strain MRSE 15-7): 0.5 µg/mL (≈ 1.16 µM)
MIC (anti-bacterial activity) ([8]; strain MSSA 15-3): 0.125 µg/mL (≈ 0.289 µM)
MIC (anti-bacterial activity) ([8]; strain MSSA 15-4): 0.125 µg/mL (≈ 0.289 µM)
MIC (anti-bacterial activity) ([8]; strain MSSA 15-5): 0.125 µg/mL (≈ 0.289 µM)
MIC (anti-bacterial activity) ([8]; strain MSSA 15-6): 0.125 µg/mL (≈ 0.289 µM)
MIC (anti-bacterial activity) ([9]; strain MSSE 15-3): 0.125 µg/mL (≈ 0.289 µM)
MIC (anti-bacterial activity) ([9]; strain MSSE 15-4): 0.125 µg/mL (≈ 0.289 µM)
MIC (anti-bacterial activity) ([9]; strain MSSE 15-5): 0.125 µg/mL (≈ 0.289 µM)
MIC (anti-bacterial activity) ([9]; strain MSSE 15-6): 0.06 µg/mL (≈ 0.139 µM)
inhibition at 30 µM [10]: 21%
